pEC50: −log10 of the molar value. ≈ marks a conversion by molar mass, not a printed value.
Key:
[1] = target: human soluble guanylate cyclase alpha 1 and beta 1 subunits (sGC) (Homo sapiens (Human), UniProt Q02108+Q02153); test: sGC cellular activator assay (cGMP, HTRF), in the presence and absence of 50% human serum; format: cell-based; details: CHO cells stably expressing human sGC alpha 1/beta 1, preincubated with 40 microM ODQ; cGMP by HTRF; Table 2 does not state whether with or without 50% human serum
Summary of the method: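 First, CHO-sGC (human α1β1) cells get 1 h ODQ at 40 microM with IBMX and 0.1% BSA. Finally, cGMP is quantified by HTRF and EC50 computed.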

[2] = Human liver microsome (HLM) metabolic stability assay; format: in vitro ADME; details: human liver microsomes
Summary of the method: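 Remaining parent measured by LC/MS/MS (ESI, MRM) at 5, 15, 30 and 60 min relative to 0 min. Incubation: 1 uM compound, HLMs, NADPH-started, 37° C., 60 min total, single replicate. Slope of ln(% remaining) gives t1/2 = 0.693/slope, then CLint, CLh and % Qh.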

physchem = details: kinetic from dmso stock
[3] = pH 2.2, aqueous buffer, Solubility (pH 2.2)
[4] = pH 4.5, aqueous buffer, Solubility (pH 4.5)
[5] = pH 6.8, aqueous buffer, Solubility (pH 6.8)

Chain of human soluble guanylate cyclase alpha 1 and beta 1 subunits (sGC) (Q02108 whole entry partner): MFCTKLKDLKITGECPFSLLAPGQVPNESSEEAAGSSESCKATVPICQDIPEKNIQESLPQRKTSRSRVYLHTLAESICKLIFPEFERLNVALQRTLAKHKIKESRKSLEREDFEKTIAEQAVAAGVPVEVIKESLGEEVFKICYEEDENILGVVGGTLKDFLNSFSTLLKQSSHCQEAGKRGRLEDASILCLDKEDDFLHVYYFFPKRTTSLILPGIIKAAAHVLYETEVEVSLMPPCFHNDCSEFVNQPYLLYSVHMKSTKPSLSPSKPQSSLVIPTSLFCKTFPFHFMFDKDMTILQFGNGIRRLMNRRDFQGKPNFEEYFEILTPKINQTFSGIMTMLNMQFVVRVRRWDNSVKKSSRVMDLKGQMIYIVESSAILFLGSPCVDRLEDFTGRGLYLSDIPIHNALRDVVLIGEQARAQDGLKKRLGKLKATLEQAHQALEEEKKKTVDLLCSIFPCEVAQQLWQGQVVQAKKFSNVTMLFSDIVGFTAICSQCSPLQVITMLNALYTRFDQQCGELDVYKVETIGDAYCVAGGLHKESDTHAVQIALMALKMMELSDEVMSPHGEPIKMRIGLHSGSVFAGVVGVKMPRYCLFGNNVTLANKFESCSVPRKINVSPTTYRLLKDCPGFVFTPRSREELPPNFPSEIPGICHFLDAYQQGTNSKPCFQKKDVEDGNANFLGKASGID
Chain of human soluble guanylate cyclase alpha 1 and beta 1 subunits (sGC) (Q02153 whole entry): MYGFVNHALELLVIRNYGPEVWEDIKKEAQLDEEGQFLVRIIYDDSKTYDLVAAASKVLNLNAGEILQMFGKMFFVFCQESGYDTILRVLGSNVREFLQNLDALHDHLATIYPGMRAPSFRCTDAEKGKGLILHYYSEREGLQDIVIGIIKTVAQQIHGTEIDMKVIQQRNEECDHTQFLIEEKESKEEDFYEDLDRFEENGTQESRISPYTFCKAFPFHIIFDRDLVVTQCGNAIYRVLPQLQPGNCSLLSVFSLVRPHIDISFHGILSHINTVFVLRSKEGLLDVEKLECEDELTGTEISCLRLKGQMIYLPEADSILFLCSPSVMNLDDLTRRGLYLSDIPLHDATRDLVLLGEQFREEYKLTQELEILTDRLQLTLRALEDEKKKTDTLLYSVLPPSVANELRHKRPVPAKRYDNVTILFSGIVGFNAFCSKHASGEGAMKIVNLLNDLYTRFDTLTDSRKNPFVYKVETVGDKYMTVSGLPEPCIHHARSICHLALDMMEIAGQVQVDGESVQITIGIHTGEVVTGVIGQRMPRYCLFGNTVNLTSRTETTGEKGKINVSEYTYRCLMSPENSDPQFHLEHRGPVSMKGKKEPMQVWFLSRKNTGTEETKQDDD

## Cc1ccc(OCc2ccc3c(c2)CCN(C2CCCOC2)C3)c(-c2csc(N3CC[C@@]4(C(=O)O)C[C@H]4C3)n2)c1 (some centres unmarked) [Compound 113]
[1]
  pEC50: 8.30
[2]
  Metabolic stability (Qh %), % hepatic blood flow: <24%
physchem; [3]
  solubility at 24 h: 130 µg/mL (≈ 232 µM)
physchem; [4]
  solubility at 24 h: 36 µg/mL (≈ 64.3 µM)
physchem; [5]
  solubility at 24 h: 2.7 µg/mL (≈ 4.82 µM)

## Cc1ccc(OCc2ccc3c(c2)CCN(C2CCOC2)C3)c(-c2csc(N3CC[C@@]4(C(=O)O)C[C@H]4C3)n2)c1 (some centres unmarked) [Compound 114]
[1]
  pEC50: 8.15
[2]
  Metabolic stability (Qh %), % hepatic blood flow: <24%
physchem; [3]
  solubility at 24 h: 120 µg/mL (≈ 220 µM)
physchem; [4]
  solubility at 24 h: 38 µg/mL (≈ 69.6 µM)
physchem; [5]
  solubility at 24 h: 5 µg/mL (≈ 9.16 µM)

## Cc1ccc(OCc2ccc3c(c2C)CCN(C2CCOCC2)C3)c(-c2csc(N3CC[C@@]4(C(=O)O)C[C@H]4C3)n2)c1 [Compound 115]
[1]
  pEC50: 7.96
[2]
  Metabolic stability (Qh %), % hepatic blood flow: <24%
physchem; [3]
  solubility at 24 h: 130 µg/mL (≈ 227 µM)
physchem; [4]
  solubility at 24 h: 36 µg/mL (≈ 62.7 µM)
physchem; [5]
  solubility at 24 h: 5.1 µg/mL (≈ 8.89 µM)

## Cc1ccc(OCc2ccc3c(c2C)CCN(C2COC2)C3)c(-c2csc(N3CC[C@@]4(C(=O)O)C[C@H]4C3)n2)c1 [Compound 116]
[1]
  pEC50: 7.46
[2]
  Metabolic stability (Qh %), % hepatic blood flow: <24%
physchem; [3]
  solubility at 24 h: 140 µg/mL (≈ 257 µM)
physchem; [4]
  solubility at 24 h: 11 µg/mL (≈ 20.2 µM)
physchem; [5]
  solubility at 24 h: 6 µg/mL (≈ 11 µM)

## Cc1ccc(OCc2ccc3c(c2C)CCN(CC2COCCO2)C3)c(-c2csc(N3CC[C@@]4(C(=O)O)C[C@H]4C3)n2)c1 (some centres unmarked) [Compound 117]
[1]
  pEC50: 8.70
[2]
  Metabolic stability (Qh %), % hepatic blood flow: 27%
physchem; [3]
  solubility at 24 h: 120 µg/mL (≈ 203 µM)
physchem; [4]
  solubility at 24 h: 42 µg/mL (≈ 71.2 µM)
physchem; [5]
  solubility at 24 h: 3.4 µg/mL (≈ 5.77 µM)

## Cc1ccc(OCc2ccc3c(c2C)CCN(C2CCCOC2)C3)c(-c2csc(N3CC[C@@]4(C(=O)O)C[C@H]4C3)n2)c1 (some centres unmarked) [Compound 118]
[1]
  pEC50: 8.40
[2]
  Metabolic stability (Qh %), % hepatic blood flow: 34%
physchem; [3]
  solubility at 24 h: 120 µg/mL (≈ 209 µM)
physchem; [4]
  solubility at 24 h: 21 µg/mL (≈ 36.6 µM)
physchem; [5]
  solubility at 24 h: < 0.1 µg/mL

## Cc1ccc(OCc2ccc3c(c2C)CCN(C2CCOC2)C3)c(-c2csc(N3CC[C@@]4(C(=O)O)C[C@H]4C3)n2)c1 (some centres unmarked) [Compound 119]
[1]
  pEC50: 8.52
[2]
  Metabolic stability (Qh %), % hepatic blood flow: <24%
physchem; [3]
  solubility at 24 h: 120 µg/mL (≈ 214 µM)
physchem; [4]
  solubility at 24 h: 18 µg/mL (≈ 32.2 µM)
physchem; [5]
  solubility at 24 h: 1.3 µg/mL (≈ 2.32 µM)

## Cc1ccc(OCc2cc(C)c3c(c2)CCN(CC2COCCO2)C3)c(-c2csc(N3CC[C@@]4(C(=O)O)C[C@H]4C3)n2)c1 (some centres unmarked) [Compound 120]
[1]
  pEC50: 8.22
[2]
  Metabolic stability (Qh %), % hepatic blood flow: <24%
physchem; [3]
  solubility at 24 h: 130 µg/mL (≈ 220 µM)
physchem; [4]
  solubility at 24 h: 27 µg/mL (≈ 45.8 µM)
physchem; [5]
  solubility at 24 h: 2.2 µg/mL (≈ 3.73 µM)

## Cc1ccc(OCc2cc(C)c3c(c2)CCN(C2CCOCC2)C3)c(-c2csc(N3CC[C@@]4(C(=O)O)C[C@H]4C3)n2)c1 [Compound 123]
[1]
  pEC50: 8.00
[2]
  Metabolic stability (Qh %), % hepatic blood flow: <24%
physchem; [3]
  solubility at 24 h: 120 µg/mL (≈ 209 µM)
physchem; [4]
  solubility at 24 h: 32 µg/mL (≈ 55.8 µM)
physchem; [5]
  solubility at 24 h: 3.3 µg/mL (≈ 5.75 µM)

## Cc1ccc(OCc2cc(C)c3c(c2)CCN(C2COC2)C3)c(-c2csc(N3CC[C@@]4(C(=O)O)C[C@H]4C3)n2)c1 [Compound 124]
[1]
  pEC50: 7.85
[2]
  Metabolic stability (Qh %), % hepatic blood flow: 31%
physchem; [3]
  solubility at 24 h: 120 µg/mL (≈ 220 µM)
physchem; [4]
  solubility at 24 h: 3.7 µg/mL (≈ 6.78 µM)
physchem; [5]
  solubility at 24 h: 4.9 µg/mL (≈ 8.98 µM)

## Cc1ccc(OCc2cc(C)c3c(c2C)CCN(C2CCOCC2)C3)c(-c2csc(N3CC[C@@]4(C(=O)O)C[C@H]4C3)n2)c1 [Compound 125]
[1]
  pEC50: 7.64
[2]
  Metabolic stability (Qh %), % hepatic blood flow: <24%
physchem; [3]
  solubility at 24 h: 140 µg/mL (≈ 238 µM)
physchem; [4]
  solubility at 24 h: 20 µg/mL (≈ 34 µM)
physchem; [5]
  solubility at 24 h: 1.2 µg/mL (≈ 2.04 µM)

## Cc1ccc(OCc2cc(C)c3c(c2C)CCN(C2COC2)C3)c(-c2csc(N3CC[C@@]4(C(=O)O)C[C@H]4C3)n2)c1 [Compound 126]
[1]
  pEC50: 7.36
[2]
  Metabolic stability (Qh %), % hepatic blood flow: <24%
physchem; [3]
  solubility at 24 h: 130 µg/mL (≈ 232 µM)
physchem; [4]
  solubility at 24 h: 2.8 µg/mL (≈ 5 µM)
physchem; [5]
  solubility at 24 h: 1.8 µg/mL (≈ 3.22 µM)

## Cc1ccc(OCc2cc(C)c3c(c2C)CCN(CC2COCCO2)C3)c(-c2csc(N3CC[C@@]4(C(=O)O)C[C@H]4C3)n2)c1 (some centres unmarked) [Compound 127]
[1]
  pEC50: 8.52
[2]
  Metabolic stability (Qh %), % hepatic blood flow: <24%
physchem; [3]
  solubility at 24 h: 130 µg/mL (≈ 215 µM)
physchem; [4]
  solubility at 24 h: 17 µg/mL (≈ 28.2 µM)
physchem; [5]
  solubility at 24 h: 0.77 µg/mL (≈ 1.28 µM)

Reference: US9353090B2, “Heterocyclic carboxylic acids as activators of soluble guanylate cyclase” (Boehringer Ingelheim International GmbH, priority 2014, dated 2016)
